Molecular target: T1, Transcription factor SOX-18 (Mouse, UniProt P43680)
T1 sequence (P43680 whole entry): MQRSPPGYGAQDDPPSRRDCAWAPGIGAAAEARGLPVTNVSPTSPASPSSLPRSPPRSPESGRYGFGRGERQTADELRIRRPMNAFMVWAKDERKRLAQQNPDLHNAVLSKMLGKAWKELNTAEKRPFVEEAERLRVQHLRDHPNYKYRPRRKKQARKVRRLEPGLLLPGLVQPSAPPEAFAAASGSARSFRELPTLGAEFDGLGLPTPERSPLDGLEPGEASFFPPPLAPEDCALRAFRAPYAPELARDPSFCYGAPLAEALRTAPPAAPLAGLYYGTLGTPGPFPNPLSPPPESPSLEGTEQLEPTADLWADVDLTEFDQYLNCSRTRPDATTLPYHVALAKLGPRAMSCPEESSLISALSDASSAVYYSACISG
Experiment: Fluorescence Polarization Assay
Details: pH 7.5; 37 °C
Experimental: The DNA-binding competition assay was performed in 25 μL, in black 384-well plates, using either 30 mM HEPES (N-2-Hydroxyethylpiperazine-N'-2-Ethanesulfonic Acid) (pH 7.5, with 100 mM KCl, 40 mM NaCl, 10 mM NH4OAc, 10 mM Guanidinium, 2 mM MgCl2, 0.5 mM EDTA, 0.01% NP-40) for mouse full length SOX18, or Tris-NaCl (10 mM Tris pH 8.0 and 100 mM NaCl) for SOX-HMG fragments. All experiments were performed using a 40bp double-stranded Prox1-DNA element with 5' fluorescein amidite (FAM) label (Sigma Proligo or InVitrogen). Optimum binding levels were obtained at 200 nM of mouse full length SOX18 and 60 nM of SOX-HMG fragment, in presence of 5 nM labelled DNA. Controls consisted of free labelled DNA (low FP milli-Polarization index, mP), labelled DNA in presence of protein (negative control, high mP), and labelled DNA and protein in presence of 400 time competing excess of unlabelled DNA (positive control, low mP). Depending on compound, final DMSO concentrations ranged from 2 to 3.33% v/v. After mixing protein, DNA probe and compound, plates were sealed and briskly agitated in the dark for 5 minutes at room temperature, 10 minutes at 37 °C, and 30 minutes at room temperature, before reading fluorescencepolarization on a Tecan M1000Pro (λexc = 485 nm, λem = 525 nm). All experiments were performed intriplicates.

SMILES: Cc1cccc2c(=O)c3c(O)cc(O)cc3oc12 [Sm13]
- IC50: 481 µM

SMILES: O=C(O)c1c(O)cccc1COCCC1C=CC=CC1 (stereo unspecified) [Sm5]
- IC50: 1110 µM

SMILES: COc1cccc(CCCCCCc2ccccc2)c1C(=O)O [Sm8]
- IC50: 327 µM

SMILES: COc1ccc(OCC(=O)c2ccc(O)cc2O)cc1 [Sm11]
- IC50: 3800 µM

SMILES: O=C(COc1ccc2ccccc2c1)c1ccc(O)cc1O [Sm12]
- IC50: 2880 µM

SMILES: O=C(O)c1c(O)cccc1CCc1ccc2ccccc2c1 [Sm4]
- IC50: 97.5 µM

Reference: BindingDB's records for doi:10.1016/j.chembiol.2017.01.003 (The University of Queensland, 2017)
